How the values were obtained:
[1] = target: T1, LXRβ ligand-binding domain (Homo sapiens, UniProt P55055, DUP175-175); assay: TR-FRETβ activity assay (NCoA3 coactivator peptide recruitment); type: biochemical; conditions: TR-FRET, 1 μM 24(S)-25-epoxycholesterol prestimulation; read-out: FRETβ (EC50 range)
T1 construct: amino acids 156-461; NP009052; made in house; host or cells: E. coli
T1 sequence (P55055 with tags, fused parts or gaps DUP175-175 limits assumed): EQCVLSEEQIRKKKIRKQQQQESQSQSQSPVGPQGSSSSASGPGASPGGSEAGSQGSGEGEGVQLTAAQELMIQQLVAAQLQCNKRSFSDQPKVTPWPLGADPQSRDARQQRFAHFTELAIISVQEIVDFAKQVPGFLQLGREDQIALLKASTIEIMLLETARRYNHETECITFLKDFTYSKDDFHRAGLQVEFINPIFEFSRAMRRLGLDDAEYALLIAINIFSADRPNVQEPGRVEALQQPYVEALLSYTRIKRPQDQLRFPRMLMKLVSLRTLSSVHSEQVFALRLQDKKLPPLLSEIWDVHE
In short: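 Inverse agonism assessed by loss of coactivator recruitment, read as TR-FRET 665/615 nm after 1 h equilibration at 4 °C, in triplicate. Ten-point titration from 50 μM to 0.002 μM against LXRβ LBD (76 nM, GST fusion) prestimulated with 1 μM 24(S)-25-epoxycholesterol, with 400 nM NCoA3 peptide, pH 6.8. Sulfonyl acetic acids kept as 20 mM DMSO stocks with 100 mM TFA.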

[2] = target: T2, ligand-binding domain (LBD) of LXRα (Homo sapiens, UniProt Q13133); assay: LXR Gal4 reporter transient transfection assay (LBD-M2H Gal4α); type: cell-based; conditions: HEK293 cells, LXRα LBD; read-out: LBD-M2H Gal4α (EC50 range)
T2 construct: expressed in transfected cells; host or cells: HEK293
T2 sequence (Q13133 155-447): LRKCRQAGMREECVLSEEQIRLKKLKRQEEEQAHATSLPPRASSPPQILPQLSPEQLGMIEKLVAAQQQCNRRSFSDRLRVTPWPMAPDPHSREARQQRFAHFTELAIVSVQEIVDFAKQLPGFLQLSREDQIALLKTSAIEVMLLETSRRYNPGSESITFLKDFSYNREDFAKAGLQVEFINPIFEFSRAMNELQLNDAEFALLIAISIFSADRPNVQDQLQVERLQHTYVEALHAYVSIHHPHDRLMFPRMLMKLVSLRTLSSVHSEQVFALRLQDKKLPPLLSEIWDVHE
Method: (§1) The tested compounds were usually dissolved, tested and stored as 20 mM stock solutions in DMSO. Since sulfonyl acetic acid derivatives tend to decarboxylate under these conditions, these stock solutions were prepared, tested and stored as 20 mM DMSO stock solutions containing 100 mM trifluoroacetic Acid (5 equivalents). Sulfonyl acetic acid derivatives are shelf stable as solid at rt for long time as reported by Griesbrecht et al. (Synlett 2010:374) or Faucher et al. (J. Med. Chem. 2004; 47:18).
(§2) LXR Gal4 Reporter Transient Transfection Assays
(§3) LXRα and LXRβ activity status was determined via detection of interaction with coactivator and corepressor proteins in mammalian two-hybrid experiments (M2H). For this, via transient transfection the full length (FL) proteins of LXRα (amino acids 1-447; NP005684; SEQ ID NO:1) or LXRβ-(amino acids 1-461; NP009052; SEQ ID NO:2) or the ligand-binding domains (LBD) of LXRα (amino acids 155-447 SEQ ID NO:3) or LXRβ (amino acids 156-461; SEQ ID NO:4) were expressed from pCMV-AD (Stratagene) as fusions to the transcriptional activation domain of NFkB. As cofactors, domains of either the steroid receptor coactivator 1 (SRC1; amino acids 552-887; SEQ ID NO:5) or of the corepressor NCoR (amino acids 1906-2312; NP006302; SEQ ID NO:6) were expressed as fusions to the DNA binding domain of the yeast transcription factor GAL4 (from pCMV-BD; Stratagene). Interaction was monitored via activation of a coexpressed Firefly Luciferase Reporter gene under control of a promoter containing repetitive GAL4 response elements (vector pFRLuc; Stratagene). Transfection efficiency was controlled via cotransfection of constitutively active pRL-CMV Renila reniformis luciferase reporter (Promega). HEK293 cells were grown in minimum essential medium (MEM) with 2 mM L-glutamine and Earle's balanced salt solution supplemented with 8.3% fetal bovine serum, 0.1 mM non-essential amino acids, 1 mM sodium pyruvate, at 37° C. in 5% CO2. 3.5×10^4 cells/well were plated in 96-well cell culture plates in growth medium supplemented with 8.3% fetal bovine serum for 16-20 h to ˜90% confluency. For transfection, medium was taken off and LXR and cofactor expressing plasmids as well as the reporter plasmids are added in 30 μL OPTIMEM/well including polyethylene-imine (PEI) as vehicle. Typical amounts of plasmids transfected/well: pCMV-AD-LXR (5 ng), pCMV-BD-cofactor (5 ng), pFR-Luc (100 ng), pRL-CMV (0.5 ng). Compound stocks were prepared in DMSO, prediluted in MEM to a total volume of 120 μL, and added 4 h after addition of the transfection mixture (final vehicle concentration not exceeding 0.2%). Cells were incubated for additional 16 h, lysed for 10 min in 1× Passive Lysis Buffer (Promega) and Firefly and Renilla luciferase activities were measured sequentially in the same cell extract using buffers containing D-luciferine and coelenterazine, respectively. Measurements of luminescence were done in a BMG-luminometer.

[3] = target: T3, ligand-binding domain (LBD) of LXRβ (Homo sapiens, UniProt P55055, DUP175-175); assay: LXR Gal4 reporter transient transfection assay (LBD-M2H Gal4β); type: cell-based; conditions: HEK293 cells, LXRβ LBD; read-out: LBD-M2H Gal4β (EC50 range)
T3 construct: LXRβ (amino acids 156-461); expressed in transfected cells; host or cells: HEK293
T3 sequence (P55055 with tags, fused parts or gaps DUP175-175 limits assumed): T1 sequence (P55055 with tags, fused parts or gaps DUP175-175 limits assumed)
Method: as §1, §2, §3

[4] = Pharmacokinetics in mice after single oral dosing (blood/plasma and liver exposure); type: in vivo, mice (C57/bl6/J)
Method: The pharmacokinetics of the compounds was assessed in mice after single dosing and oral administrations. Blood/plasma and liver exposure was measured via LC-MS.
The study design was as follows:
Animals: C57/bl6/J (Janvier) males
Diet: standard rodent chow
Animal handling: animals were withdrawn from food at least 12 h before administration
Design: single dose oral administration, n=3 animals per group
Sacrifice: at stated time point (4, 12 or 24 h) after administration
Bioanalytics: LC-MS of liver and blood/plasma samples

[5] = target: T4, full length (FL) LXRβ (Homo sapiens, UniProt P55055, DUP175-175); assay: LXR Gal4 reporter transient transfection assay (FL-M2H Gal4β); type: cell-based; conditions: HEK293 cells, full length LXRβ; read-out: FL-M2H Gal4β (EC50 range)
T4 construct: the full length (FL) proteins of LXRα (amino acids 1-447); NP005684; NP009052; expressed in transfected cells; host or cells: HEK293
T4 sequence (P55055 with tags, fused parts or gaps DUP175-175): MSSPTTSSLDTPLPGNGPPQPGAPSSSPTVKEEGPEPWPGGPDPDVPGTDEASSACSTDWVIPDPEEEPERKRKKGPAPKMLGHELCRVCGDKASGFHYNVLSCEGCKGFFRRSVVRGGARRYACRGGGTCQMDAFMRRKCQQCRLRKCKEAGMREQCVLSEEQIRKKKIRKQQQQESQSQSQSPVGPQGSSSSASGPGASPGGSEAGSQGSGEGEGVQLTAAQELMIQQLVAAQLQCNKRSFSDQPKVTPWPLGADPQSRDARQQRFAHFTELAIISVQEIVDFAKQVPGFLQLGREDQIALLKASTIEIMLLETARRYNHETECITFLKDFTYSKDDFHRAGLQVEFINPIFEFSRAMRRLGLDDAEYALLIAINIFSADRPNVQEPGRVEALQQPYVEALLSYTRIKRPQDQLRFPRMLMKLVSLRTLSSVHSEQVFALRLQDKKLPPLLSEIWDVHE
In short: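 Luminescence readout: Firefly luciferase driven by GAL4 response elements reports LXR–cofactor interaction, normalised against cotransfected Renilla luciferase. The system used HEK293 cells expressing LXR full length or ligand-binding domain fused to the NFkB activation domain, with SRC1 or NCoR domains on GAL4 DBD; compound exposure was 16 h.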

[6] = 20 mg/kg single oral dose, time point 4 h

N#Cc1sccc1-c1c(-c2cccc(C3CC3C(=O)O)c2)n(S(=O)(=O)c2ccc(Cl)cc2)c2ccccc12 (stereo not shown) [30/4]
EC50 [1]: 1 to 10 µM
EC50 [2]: 0.1 to 1 µM
EC50 [3]: < 0.1 µM
blood/plasma exposure [4, 6]: C (C: 100 nM to <300 nM)
liver exposure [4, 6]: C (C: 1 μM to ≤3 μM)
liver/blood ratio [4, 6]: C (C: 10 to ≤30)

N#Cc1sccc1-c1c(-c2cccc(N3CC(C(=O)O)C3)c2)n(S(=O)(=O)c2ccc(Cl)cc2)c2ccccc12 [30/7]
EC50 [1]: 0.1 to 1 µM
EC50 [2]: < 0.1 µM
EC50 [3]: < 0.1 µM
blood/plasma exposure [4, 6]: D (D: <100 nM)
liver exposure [4, 6]: B (B: 300 nM to ≤1 μM)
liver/blood ratio [4, 6]: D (D: >30)

N#Cc1sccc1-c1c(-c2cccc(N3CCC(C(=O)O)C3)c2)n(S(=O)(=O)c2ccc(Cl)cc2)c2ccccc12 (stereo not shown) [30/11]
EC50 [1]: 0.1 to 1 µM
EC50 [2]: 0.1 to 1 µM
EC50 [3]: < 0.1 µM

N#Cc1sccc1-c1c(-c2cccc(C3CC3C(=O)O)c2)n(S(=O)(=O)C2CC2)c2ccccc12 (stereo not shown) [30/12]
EC50 [1]: 1 to 10 µM
EC50 [2]: 1 to 10 µM
EC50 [3]: 0.1 to 1 µM

Cc1ccc(S(=O)(=O)n2c(-c3cccc(C4CC4C(=O)O)c3)c(-c3ccsc3F)c3ccccc32)cc1 (stereo not shown) [30/14]
EC50 [1]: 1 to 10 µM
EC50 [2]: 0.1 to 1 µM
EC50 [3]: 0.1 to 1 µM

Cc1ccc(S(=O)(=O)n2c(-c3cccc(C4CC4C(=O)O)c3)c(-c3ccc(F)cc3C#N)c3ccccc32)cc1 (stereo not shown) [30/15]
EC50 [1]: 1 to 10 µM
EC50 [2]: 0.1 to 1 µM
EC50 [3]: 0.1 to 1 µM

CS(=O)(=O)NC(=O)C1CC1c1cccc(-c2c(-c3ccsc3C#N)c3ccccc3n2S(=O)(=O)c2ccc(Cl)cc2)c1 (stereo not shown) [32/1]
EC50 [1]: 0.1 to 1 µM
EC50 [2]: 0.1 to 1 µM
EC50 [3]: < 0.1 µM

Cc1ccc(S(=O)(=O)n2c(-c3cccc(-c4ccc(CN5CCN(C)CC5)cc4)c3)c(-c3ccsc3C#N)c3cc(F)ccc32)cc1 [Example 8, 3-(5-Fluoro-2-(4′-((4-methylpiperazin-1-yl)methyl)-[1,1′-biphenyl]-3-yl)-1-tosyl-1H-indol-3-yl)thiophene-2-carbonitrile]
EC50 [1]: 0.1 to 1 µM
EC50 [5]: < 0.1 µM
blood/plasma exposure [4, 6]: B (B: 300 nM to ≤1 μM)
liver exposure [4, 6]: D (D: >3 μM)
liver/blood ratio [4, 6]: B (B: 3 to ≤10)

NC(=O)c1sccc1-c1c(-c2cccs2)n(S(=O)(=O)c2ccc(Cl)cc2)c2ccccc12 [Example 22]
EC50 [1]: 1 to 10 µM
EC50 [2]: 0.1 to 1 µM
EC50 [3]: 0.1 to 1 µM

N#Cc1sccc1-c1c(-c2cccs2)n(S(=O)(=O)C2CCCCC2)c2ccccc12 [Example 24, 3-(1-(Cyclohexylsulfonyl)-2-(thiophen-2-yl)-1H-indol-3-yl)thiophene-2-carbonitrile]
EC50 [1]: 1 to 10 µM
EC50 [2]: 0.1 to 1 µM
EC50 [3]: < 0.1 µM

N#Cc1sccc1-c1c(-c2ccccc2)n(S(=O)(=O)c2ccc(Cl)cc2)c2ccccc12 [Example 26, 3-(1-((4-Chlorophenyl)sulfonyl)-2-phenyl-1H-indol-3-yl)thiophene-2-carbonitrile]
EC50 [1]: 0.1 to 1 µM
EC50 [2]: < 0.1 µM
EC50 [3]: < 0.1 µM

N#Cc1sccc1-c1c(-c2cccc(OCCC(=O)O)n2)n(S(=O)(=O)c2ccc(Cl)cc2)c2ccccc12 [Example 31, 3-((6-(1-((4-Chlorophenyl)sulfonyl)-3-(2-cyanothiophen-3-yl)-1H-indol-2-yl)pyridin-2-yl)oxy)propanoic Acid]
EC50 [1]: 1 to 10 µM
EC50 [2]: 0.1 to 1 µM
EC50 [3]: 0.1 to 1 µM

CCOC(=O)c1ccc(CN(Cc2ccc(-c3cccc(S(C)(=O)=O)c3)cc2)S(=O)(=O)c2c(C)cc(C)cc2C)o1 [SR9238, reference compound]
blood/plasma exposure (below LLOQ, LLOQ value not given) [4, 6]: LLOQ
oral bioavailability (in words) ([4]; oral administration): not orally bioavailable

Reference: patent US11618747B2, “LXR modulators with bicyclic core moiety” (OrsoBio, Inc., priority 2018, dated 2023)
